Data published in publication PMC3578427 (Journal of medicinal chemistry, 2011).
Structures can show the parent of a compound that is named as a salt.

Legend:
human (h) A2B AR = settings: cited from earlier work
Water solubility = type: physicochemical
hA2B AR = molecular target: T1, hA2B AR (Homo sapiens, UniProt P29275)
T1 sequence (P29275 1-332): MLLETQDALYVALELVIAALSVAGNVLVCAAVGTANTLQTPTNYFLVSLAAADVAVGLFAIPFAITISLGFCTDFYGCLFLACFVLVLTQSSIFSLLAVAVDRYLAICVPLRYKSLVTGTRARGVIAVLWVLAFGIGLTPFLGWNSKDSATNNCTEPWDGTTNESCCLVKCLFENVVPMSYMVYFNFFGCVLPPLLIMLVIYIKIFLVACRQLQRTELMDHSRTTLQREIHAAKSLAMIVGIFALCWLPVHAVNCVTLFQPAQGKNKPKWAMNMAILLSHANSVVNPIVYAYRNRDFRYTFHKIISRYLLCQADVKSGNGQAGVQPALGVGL

hA3 AR = molecular target: T2, hA3 AR (Homo sapiens, UniProt P0DMS8)
T2 sequence (P0DMS8 1-318): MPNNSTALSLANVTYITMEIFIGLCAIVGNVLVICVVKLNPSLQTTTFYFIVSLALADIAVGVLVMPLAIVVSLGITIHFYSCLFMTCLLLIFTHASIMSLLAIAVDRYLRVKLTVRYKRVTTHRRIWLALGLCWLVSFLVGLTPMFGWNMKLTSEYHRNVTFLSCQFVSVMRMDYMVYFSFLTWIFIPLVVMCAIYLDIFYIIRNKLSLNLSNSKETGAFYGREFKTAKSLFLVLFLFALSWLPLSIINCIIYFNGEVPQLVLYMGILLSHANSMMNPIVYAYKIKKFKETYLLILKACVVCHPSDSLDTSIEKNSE

SMILES	activity at hA2B AR in the functional assay (hA2B AR)	other results
Nc1nc(NCCc2ccc(O)cc2)nc2nc(-c3ccco3)nn12 [ZM241385]		affinity at hA2B AR (human (h) A2B AR): 28 nM
NCCOCCOCCNc1nc(N)n2nc(-c3ccco3)nc2n1.O=C(O)C(F)(F)F [Compound 20, 7-Amino-5-[(8-amino)triethylenoxy]-amino-2(2-furyl) 1,2,4-triazolo [1,5-a] 1,3,5-triazine trifluoroacetate]		solubility (Water solubility): ≥ 10 mM
Nc1nc(N)n2nc(-c3ccco3)nc2n1 [Compound 41, 5,7-diamino-2(2-furyl) 1,2,4-triazolo [1,5-a] 1,3,5-triazine]	poorly active	
CC(C)(C)OC(=O)NCCNc1nc(N)n2nc(-c3ccco3)nc2n1 [Compound 10, 7-Amino-5-[(2-tert-butyloxycarbonylamino)ethyl]-amino-2(2-furyl) 1,2,4-triazolo [1,5-a] 1,3,5-triazine]		Ki (hA3 AR): ~1000 nM
CC(C)(C)OC(=O)NCC1CCC(CNc2nc(N)n3nc(-c4ccco4)nc3n2)CC1 (stereo not drawn) [Compound 11, 7-Amino-5-[(4-tert-butyloxycarbonylaminomethyl)cyclohexylmethyl]-amino-2(2-furyl) 1,2,4-triazolo [1,5-a] 1,3,5-triazine]	poorly active	
Nc1nc(NC(=O)c2ccccc2)n2nc(-c3ccco3)nc2n1 [Compound 43, 5-amino-7-phenylcarbonylamino-2(2-furyl) 1,2,4-triazolo [1,5-a] 1,3,5-triazine trifluoroacetate]	poorly active	
